Structures are written as SMILES. Records with an inconclusive call do not appear. Calls of active or inactive are those of the source. How the calls were made is not given here.

7 compounds from PubChem BioAssay AID977626 (Broad Institute, 2014) can be followed below.

For assay [1], the system named is E. coli WT-RFP vs G2058 humanized-GFP mixed culture, fluorescence. In words: selective 23S rRNA G2058 site antibacterials – G2058 mutant GFP vs wild-type RFP, cherry-pick, OD600, dose response (AID 977626).
Test in assay [2]: as above
The conditions noted are these: E. coli WT-RFP vs G2058 humanized-GFP mixed culture, fluorescence; at 50 µM (top of the series).

Where [3] appears, read: E. coli WT-RFP vs G2058 humanized-GFP mixed culture, measured here: total growth OD600.
[4] abbreviates: measured here: G2058 humanized mutant strain GFP.

By AC50 is commonly meant the midpoint of the concentration-response curve, whichever way the signal moves. For `COc1ccc(Nc2oc(-c3ccco3)nc2S(=O)(=O)c2ccc(F)cc2)cc1`, the AC50 in assay [1] was 3.67 µM.

Regarding `COc1ccc(Cn2c(-c3ccc(Cl)cc3)c[n+]3ccccc23)cc1`, the activity change, negative = inhibition in assay [2] is -3.75 (inactive). Also, in assay [1] (setting [3]), the AC50 came out at 45.6 µM.

For `CCN(CC)CCn1c2ccccc2c2nc3ccc([N+](=O)[O-])cc3cc21`, the activity change, negative = inhibition in assay [2] is 26.7 (inactive). Also, the AC50 in assay [1] (setting [3]) amounted to 4.58 µM; in assay [1] (setting [4]), 5.66 µM.

With `Cc1ccc(C)c(NC(=O)CSc2nc3nc(-c4cccs4)cc(C(F)(F)F)c3c(=O)[nH]2)c1`, the activity change, negative = inhibition in assay [2] was -7.41 (inactive). Moreover, the AC50 in assay [1] (setting [3]) turned out to be 8.26 µM; in assay [1] (setting [4]) it was 9.81 µM.

Turning to `O=C(O)c1cc([N+](=O)[O-])ccc1NCc1ccccc1`, the activity change, negative = inhibition in assay [2] was 23.8 (inactive). In addition, the AC50 in assay [1] (setting [3]) was 14.4 µM; in assay [1] (setting [4]) it was 38.9 µM.

For `COc1ccc(NC(=O)c2ccc(-c3ccc([N+](=O)[O-])cc3)o2)cc1`, the AC50 in assay [1] was 2.63 µM; in assay [1] (setting [3]), 5.22 µM; in assay [1] (setting [4]) it was over 100 µM.

On to `COC(=O)c1c(NC(=O)CCC(=O)O)sc(Cc2ccccc2)c1C`, for which the values for the AC50 in assay [1], in assay [1] (setting [3]) and in assay [1] (setting [4]) were 9.22 µM, 3.27 µM and 3.03 µM, respectively.
